Laboratory results reported in the Deep4Chem optical property database.
Values belong to the molecule of their own block, whether it stands above or below them.

Assay: solvent given as SMILES

SMILES: CCN(CC)c1ccc2cc(/C=C/C(O)=C/C(C)=O)c(=O)oc2c1
absorption maximum (in CC#N): 456 nm
absorption maximum (in CC(C)=O): 456 nm
absorption maximum (in CCOC(C)=O): 447 nm
absorption maximum (in CO): 458 nm
absorption maximum (in CS(C)=O): 470 nm
absorption maximum (in Cc1ccccc1): 447 nm
absorption maximum (in ClC(Cl)Cl): 455 nm
absorption maximum (in ClCCl): 456 nm

SMILES: CCn1c2ccccc2c2cc(-c3cc(-c4ccc5c(c4)c4ccccc4n5CC)nc(-c4ccccc4)n3)ccc21
absorption maximum (in C1CCOC1): 364 nm
absorption maximum (in CCOC(C)=O): 360 nm
absorption maximum (in CN(C)C=O): 367 nm
absorption maximum (in Cc1ccccc1): 363 nm
absorption maximum (in ClCCl): 363 nm

SMILES: O=C1c2ccccc2-c2ccc(Nc3nc(Cl)nc(Cl)n3)c3cccc1c23
absorption maximum (in CC(C)=O): 405.02 nm
absorption maximum (in CC(C)O): 411.86 nm
absorption maximum (in CCCCOCCCC): 400.96 nm
absorption maximum (in CCOC(C)=O): 403.06 nm
absorption maximum (in CO): 410 nm
absorption maximum (in Cc1ccccc1): 411.02 nm
absorption maximum (in Clc1ccccc1): 410 nm
absorption maximum (in O=C1CCCCC1): 410 nm

SMILES: c1cc2c3c(cccc3c1)-c1c-2c2c3ccccc3c3ccc4c5c6c(c7c8ccccc8c8ccc9c%10c%11c(c%12c%13ccccc%13c%13ccc%14c1c1c2c3c4c2c1c1c%14c%13c%12c%10c1c1c9c8c7c5c21)-c1cccc2cccc-%11c12)-c1cccc2cccc-6c12
absorption maximum (in C1CCOC1): 475 nm

SMILES: Oc1ccccc1/C=N/N=C/c1ccccc1O
absorption maximum (in CC#N): 355 nm
absorption maximum (in CC(C)CCCC(C)CCCC(C)CCCCC(C)CCCC(C)CCCC(C)C): 363 nm
absorption maximum (in CCCCCC): 361 nm
absorption maximum (in CCCCCCCCC): 362 nm
absorption maximum (in CCCCCCCCCCCCCCCC): 363 nm
absorption maximum (in CCCCl): 359 nm
absorption maximum (in CCN(CC)CC): 359 nm
absorption maximum (in CCO): 356 nm
absorption maximum (in CCOCC): 358 nm
absorption maximum (in CO): 355 nm
absorption maximum (in O=C(O)C(F)(F)F): 398 nm
absorption maximum (in OC(C(F)(F)F)C(F)(F)F): 345 nm
absorption maximum (in OCC(F)(F)F): 350 nm
absorption maximum (in OCCO): 357 nm

SMILES: COC(=O)CNC(=O)CCNc1cccc2ccccc12
absorption maximum (in CCO): 330 nm

SMILES: CCN1C(=CC2=C([O-])C(=Cc3sc4ccccc4[n+]3CC)C2=O)Sc2ccccc21
absorption maximum (in CO): 649 nm
absorption maximum (in ClC(Cl)Cl): 669 nm
absorption maximum (in ClCCl): 670 nm

SMILES: C(#Cc1cc(C#Cc2cccs2)c(C#Cc2cccs2)c(C#Cc2cccs2)c1C#Cc1cccs1)c1cccs1
absorption maximum (in ClCCl): 372 nm

SMILES: F[B-]1(F)n2c(nc3c4ccccc4c4ccccc4c32)-c2cccc[n+]21
absorption maximum (in CC#N): 403 nm
absorption maximum (in CCCCCC): 447 nm
absorption maximum (in CO): 404 nm
absorption maximum (in ClC(Cl)Cl): 430 nm
absorption maximum (in ClCCl): 421 nm

SMILES: Cc1cccc(C2=CC3=C(c4c(C)cc(C)cc4C)c4cc(-c5cccc(C)c5)c(-c5cccc(C)c5)n4[B-](F)(F)[N+]3=C2c2cccc(C)c2)c1
absorption maximum (in C1CCCCC1): 579 nm
absorption maximum (in C1CCOC1): 577 nm
absorption maximum (in CC#N): 559 nm
absorption maximum (in Cc1ccccc1): 571 nm
absorption maximum (in ClCCl): 573 nm

Now from value to molecule:

absorption maximum (in CC#N): 397 nm
SMILES: c1ccc2c(c1)ncc1ccc3cnc4ccccc4c3c12

absorption maximum (in C1CCCCC1): 397.6 nm
SMILES: COC(=O)c1c(C(=O)OC)c2ccc(-c3ccccc3)nn2c1C

absorption maximum (in CC#N): 369 nm
absorption maximum (in CCCCCC): 366 nm
absorption maximum (in CO): 370 nm
absorption maximum (in CS(C)=O): 373 nm
absorption maximum (in ClC(Cl)Cl): 371 nm
SMILES: CCC1=C(C)c2cc3ccccc3c(=O)n2C1=O

absorption maximum (in C1CCOC1): 407 nm
SMILES: CN(C)c1ccc(C(=Cc2ccc(C=O)cc2)c2ccc(N(C)C)cc2)cc1

absorption maximum (in O): 420 nm
SMILES: O=C(O)CCCCCn1c2ccccc2c(=O)c2cc(F)ccc21

absorption maximum (in ClC(Cl)Cl): 390 nm
SMILES: CCCCCCN1C(=O)c2cccc3c(-c4scc5c4OCCO5)ccc(c23)C1=O

absorption maximum (in CC#N): 350 nm
SMILES: N#Cc1nn(-c2cc(F)cc(F)c2)nc1N1CCCC1

absorption maximum (in C1CCOC1): 337.3 nm
absorption maximum (in CC#N): 335.33 nm
absorption maximum (in CCCCCCO): 343.23 nm
absorption maximum (in CCO): 338.86 nm
absorption maximum (in CCOC(C)=O): 335.84 nm
absorption maximum (in CS(C)=O): 340.34 nm
absorption maximum (in O): 341.09 nm
absorption maximum (in c1ccccc1): 339.29 nm
SMILES: O=C1CCCc2c1[nH]c1cc3c(cc21)OCO3
